Experimental data taken from patent publication US7163946B2 (Ligand Pharmaceuticals Incorporated, priority 2002, dated 2007).
pEC50, pIC50: −log10 of the molar value.

Key:
Format in all cases: cell-based
hPR [1] = biological target: T1, hPR (Homo sapiens, UniProt P06401); assay: T47D alkaline phosphatase assay, agonist mode; settings: T47D human breast cancer cells; for Emax: T47D, read-out: hPR Agonist T47D cells Eff. (%)
T1 sequence (P06401 679-933 limits assumed): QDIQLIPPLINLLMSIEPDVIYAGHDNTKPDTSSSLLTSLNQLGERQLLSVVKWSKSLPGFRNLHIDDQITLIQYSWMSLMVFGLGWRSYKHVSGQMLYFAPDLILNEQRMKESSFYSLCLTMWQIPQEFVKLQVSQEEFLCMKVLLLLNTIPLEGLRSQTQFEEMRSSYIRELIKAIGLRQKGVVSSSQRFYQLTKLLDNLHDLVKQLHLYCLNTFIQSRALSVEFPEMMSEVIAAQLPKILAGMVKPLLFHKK
From the text: (§1) The potential tissue-selectivities of the selected analogues were examined by using the T47D alkaline phosphatase assay that was developed from human breast cancer cells with endogenous PRs.

hPR [2] = biological target: T2, hPR (Homo sapiens, UniProt P06401); assay: hPR cotransfection assay in CV-1 cells, agonist mode; settings: for hPR Agonist CV-1 Cells Eff. (%) / Emax: relative to maximal response of progesterone as 100%; for Emax: CV-1, CV-1 cells, read-out: hPR Agonist CV-1 Cells Eff. (%); for EC50: Tables 3 and 4, values without footnote, read-out: hPR agonist potencies (EC50 in nM) in the cotransfection assay
T2 sequence (P06401 1-933): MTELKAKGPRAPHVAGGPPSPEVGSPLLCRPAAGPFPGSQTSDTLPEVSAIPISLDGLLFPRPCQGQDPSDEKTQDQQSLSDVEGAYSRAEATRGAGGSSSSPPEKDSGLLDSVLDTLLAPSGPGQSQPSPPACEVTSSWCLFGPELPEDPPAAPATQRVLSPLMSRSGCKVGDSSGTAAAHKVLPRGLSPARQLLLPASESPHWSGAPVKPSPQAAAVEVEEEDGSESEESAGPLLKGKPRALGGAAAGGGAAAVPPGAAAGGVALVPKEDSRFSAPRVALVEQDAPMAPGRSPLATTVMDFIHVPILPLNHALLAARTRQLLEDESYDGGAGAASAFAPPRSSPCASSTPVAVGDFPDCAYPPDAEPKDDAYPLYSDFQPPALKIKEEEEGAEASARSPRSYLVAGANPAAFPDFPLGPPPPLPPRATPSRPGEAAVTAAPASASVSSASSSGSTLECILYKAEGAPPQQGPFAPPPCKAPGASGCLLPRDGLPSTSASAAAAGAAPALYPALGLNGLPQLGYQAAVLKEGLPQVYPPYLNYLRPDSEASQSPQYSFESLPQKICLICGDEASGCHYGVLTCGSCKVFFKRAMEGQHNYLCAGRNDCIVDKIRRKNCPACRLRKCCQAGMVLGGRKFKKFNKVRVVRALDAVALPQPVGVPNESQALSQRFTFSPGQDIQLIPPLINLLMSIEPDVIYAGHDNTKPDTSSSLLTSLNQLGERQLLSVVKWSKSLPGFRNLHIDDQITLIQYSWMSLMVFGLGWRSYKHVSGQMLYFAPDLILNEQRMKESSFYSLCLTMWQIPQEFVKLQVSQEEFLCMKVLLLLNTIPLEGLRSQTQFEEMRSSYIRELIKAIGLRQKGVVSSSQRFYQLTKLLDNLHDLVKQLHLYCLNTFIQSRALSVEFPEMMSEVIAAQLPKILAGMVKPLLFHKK
Method: (§2) Antagonist efficacy was determined as a function (%) of maximal inhibition of a reference agonist at EC50 concentration. All the cotransfection experiments were carried out in 96-well plates by automation (Beckman Biomomek automated workstation).

hPR [3] = biological target: T2, hPR; assay: hPR cotransfection assay in CV-1 cells, antagonist mode; settings: for hPR Antagonist CV-1 Cells Eff. (%) / Emax: maximal inhibition of reference agonist at EC50 concentration; for Emax: CV-1, CV-1 cells, read-out: hPR Antagonist CV-1 Cells Eff. (%)
Method: as §2

hPR [4] = biological target: T1, hPR; assay: T47D alkaline phosphatase assay, antagonist mode; settings: T47D human breast cancer cells; for Emax: read-out: hPR Antagonists T47D Cells Eff. (%)
From the text: as §1

Question: With `CC1=CC(C)(C)Nc2ccc3c(c21)C(c1ccc(Cl)c(C)c1)Oc1c(F)cc(F)cc1-3` (single isomer, unassigned; (+)) [Compound 39, (+)-7,9-difluoro-5-(4-chloro-3-methylphenyl)-1,2-dihydro-2,2,4-trimethyl-5H-chromeno[3,4-f]quinoline] as the molecule, how does the pEC50 (hPR [1]) read?
Answer: < 5.00

Question: What about the “hPR Agonist T47D cells Eff. (%)” value (hPR [1]) of the same molecule?
Answer: na (na = not active (i.e. efficacy of <20 and potency of >10,000))

Question: And the pEC50 (hPR [2]; CV-1 cells, read-out: hPR Agonist CV-1 Cells EC50)?
Answer: 7.55

Question: And the “hPR Agonist CV-1 Cells Eff. (%)” value (hPR [2]; CV-1 cells)?
Answer: 26%

Question: What about the pIC50 (hPR [3]; CV-1 cells) of the same molecule?
Answer: 7.62

Question: What about the “hPR Antagonist CV-1 Cells Eff. (%)” value (hPR [3]; CV-1 cells) of the same molecule?
Answer: 62%

Question: And the Emax (hPR [4])?
Answer: 29%

Question: And the pIC50 (hPR [4]; read-out: hPR Antagonists T47D Cells IC50)?
Answer: 5.39

Question: Which Emax (hPR [1]) does the source give for `C[C@]12CCC(=O)C=C1[C@@H]1C[C@@H]1[C@H]1[C@@H]3[C@@H]4C[C@@H]4[C@@]4(CCC(=O)O4)[C@@]3(C)CC[C@@H]12` [Drospirenone, reference compound] here?
Answer: 117%

Question: And the Emax (hPR [2])?
Answer: 87%

Question: And the Emax (hPR [3])?
Answer: < 20%

Question: What about the Emax (hPR [4]) of the same molecule?
Answer: < 20%

Question: `CC1=CC(C)(C)Nc2ccc3c(c21)/C(=C/c1ccccc1F)Oc1ccc(Cl)cc1-3` [Formula II X=9-Cl 2-F-Ph, reference compound] was tested. Which EC50 (hPR [2]) did it give?
Answer: 26.5 nM

Question: For `CC1=CC(C)(C)Nc2ccc3c(c21)/C(=C/c1cc(F)ccc1C)Oc1ccc(Cl)cc1-3` [Formula II X=9-Cl 2-Me-5-F-Ph, reference compound], which EC50 (hPR [2]) is on record?
Answer: 2.1 nM

Question: For `CC1=CC(C)(C)Nc2ccc3c(c21)/C(=C/c1ccccc1C)Oc1ccc(Cl)cc1-3` [Formula II X=9-Cl 2-Me-Ph, reference compound], which EC50 (hPR [2]) is on record?
Answer: 8.5 nM

Question: `CC1=CC(C)(C)Nc2ccc3c(c21)/C(=C/c1cccc(F)c1)Oc1ccc(Cl)cc1-3` [Formula II X=9-Cl 3-F-Ph, reference compound] was tested. Which EC50 (hPR [2]) did it give?
Answer: 11.6 nM

Question: `CC1=CC(C)(C)Nc2ccc3c(c21)/C(=C/c1ccccc1)Oc1ccc(Cl)cc1-3` [Formula II X=9-Cl Phenyl, reference compound] was tested. Which EC50 (hPR [2]) did it give?
Answer: 6.24 nM

Question: Which EC50 (hPR [2]) does the source give for `CC1=CC(C)(C)Nc2ccc3c(c21)/C(=C/c1cc(F)ccc1F)Oc1ccc(F)cc1-3` [Formula II X=9-F 2,5-diF-Ph, reference compound] here?
Answer: 3 nM

Question: How did the EC50 (hPR [2]) turn out when `CC1=CC(C)(C)Nc2ccc3c(c21)/C(=C/c1ccccc1Cl)Oc1ccc(F)cc1-3` [Formula II X=9-F 2-Cl-Ph, reference compound] was run?
Answer: 12 nM

Question: Which EC50 (hPR [2]) does the source give for `CC1=CC(C)(C)Nc2ccc3c(c21)/C(=C/c1ccccc1F)Oc1ccc(F)cc1-3` [Formula II X=9-F 2-F-Ph, reference compound] here?
Answer: 7.3 nM

Question: How did the EC50 (hPR [2]) turn out when `CC1=CC(C)(C)Nc2ccc3c(c21)/C(=C/c1cccc(F)c1C)Oc1ccc(F)cc1-3` [Formula II X=9-F 2-Me-3-F-Ph, reference compound] was run?
Answer: 8.4 nM

Question: Which EC50 (hPR [2]) does the source give for `CC1=CC(C)(C)Nc2ccc3c(c21)/C(=C/c1cc(F)ccc1C)Oc1ccc(F)cc1-3` [Formula II X=9-F 2-Me-5-F-Ph, reference compound] here?
Answer: 2.1 nM

Question: How did the EC50 (hPR [2]) turn out when `COc1ccc(F)cc1/C=C1\Oc2ccc(F)cc2-c2ccc3c(c21)C(C)=CC(C)(C)N3` [Formula II X=9-F 2-MeO-5-F-Ph, reference compound] was run?
Answer: 0.9 nM

Question: For `COc1ccccc1/C=C1\Oc2ccc(F)cc2-c2ccc3c(c21)C(C)=CC(C)(C)N3` [Formula II X=9-F 2-MeO-Ph, reference compound], which EC50 (hPR [2]) is on record?
Answer: 0.93 nM

Question: With `CC1=CC(C)(C)Nc2ccc3c(c21)/C(=C/c1cccs1)Oc1ccc(F)cc1-3` [Formula II X=9-F 2-Thienyl, reference compound] as the molecule, how does the EC50 (hPR [2]) read?
Answer: 18 nM

Question: With `CC1=CC(C)(C)Nc2ccc3c(c21)/C(=C/c1ccncc1C)Oc1ccc(F)cc1-3` [Formula II X=9-F 3-Me-4-pyridinyl, reference compound] as the molecule, how does the EC50 (hPR [2]) read?
Answer: 2 nM

Question: Which EC50 (hPR [2]) does the source give for `CC1=CC(C)(C)Nc2ccc3c(c21)/C(=C/c1ccc(F)cc1)Oc1ccc(F)cc1-3` [Formula II X=9-F 4-F-Ph, reference compound] here?
Answer: 3.95 nM

Question: How did the EC50 (hPR [2]) turn out when `CC1=CC(C)(C)Nc2ccc3c(c21)/C(=C/c1ccccc1)Oc1ccc(F)cc1-3` [Formula II X=9-F Phenyl, reference compound] was run?
Answer: 5.25 nM

Question: For `CC1=CC(C)(C)Nc2ccc3c(c21)/C(=C/c1cccc(F)c1)Oc1ccc(C)cc1-3` [Formula II X=9-Me 3-F-Ph, reference compound], which EC50 (hPR [2]) is on record?
Answer: 7.95 nM

Question: How did the EC50 (hPR [2]) turn out when `CC1=CC(C)(C)Nc2ccc3c(c21)/C(=C/c1cc(F)ccc1F)Oc1ccc(O)cc1-3` [Formula II X=9-OH 2,5-diF-Ph, reference compound] was run?
Answer: 10 nM

Question: For `CC1=CC(C)(C)Nc2ccc3c(c21)/C(=C/c1ccccc1C)Oc1ccc(O)cc1-3` [Formula II X=9-OH 2-Me-Ph, reference compound], which EC50 (hPR [2]) is on record?
Answer: 9.3 nM

Question: How did the EC50 (hPR [2]) turn out when `COc1ccc(F)cc1/C=C1\Oc2ccc(O)cc2-c2ccc3c(c21)C(C)=CC(C)(C)N3` [Formula II X=9-OH 2-MeO-5-F-Ph, reference compound] was run?
Answer: 11.5 nM

Question: `CC1=CC(C)(C)Nc2ccc3c(c21)/C(=C/c1cccc(F)c1)Oc1ccc(O)cc1-3` [Formula II X=9-OH 3-F-Ph, reference compound] was tested. Which EC50 (hPR [2]) did it give?
Answer: 5.75 nM

Question: For `CC1=CC(C)(C)Nc2ccc3c(c21)/C(=C/c1ccccc1)Oc1ccc(O)cc1-3` [Formula II X=9-OH Phenyl, reference compound], which EC50 (hPR [2]) is on record?
Answer: 54.4 nM

Question: With `COc1ccc2c(c1)-c1ccc3c(c1/C(=C/c1ccccc1C)O2)C(C)=CC(C)(C)N3` [Formula II X=9-OMe 2-Me-Ph, reference compound] as the molecule, how does the EC50 (hPR [2]) read?
Answer: 67.5 nM

Question: Which EC50 (hPR [2]) does the source give for `COc1ccc2c(c1)-c1ccc3c(c1/C(=C/c1ccccc1)O2)C(C)=CC(C)(C)N3` [Formula II X=9-OMe Phenyl, reference compound] here?
Answer: 67 nM

Question: Which EC50 (hPR [2]) does the source give for `CC1=CC(C)(C)Nc2ccc3c(c21)/C(=C/c1cc(F)ccc1C)Oc1ccccc1-3` [Formula II X=H 2-Me-5-F-Ph, reference compound] here?
Answer: 2.6 nM

Question: Which Emax (hPR [1]) does the source give for `C#C[C@]1(O)CC[C@H]2[C@@H]3CCC4=CC(=O)CC[C@@H]4[C@H]3CC[C@@]21CC` [Levonorgestrel, reference compound] here?
Answer: 96%

Question: What about the Emax (hPR [2]) of the same molecule?
Answer: 216%

Question: What about the Emax (hPR [3]) of the same molecule?
Answer: < 20%

Question: And the Emax (hPR [4])?
Answer: < 20%

Question: Which results are given for `CC(=O)O[C@]1(C(C)=O)CC[C@H]2[C@@H]3C[C@H](C)C4=CC(=O)CC[C@]4(C)[C@H]3CC[C@@]21C` [MPA, reference compound]?
Answer: hPR Agonist T47D cells Eff. (%) (hPR [1]): 114%; hPR Agonist CV-1 Cells Eff. (%) (hPR [2]; CV-1 cells): 88%; hPR Antagonist CV-1 Cells Eff. (%) (hPR [3]; CV-1 cells): na (na = not active (i.e. efficacy of <20 and potency of >10,000)); hPR Antagonists T47D Cells Eff. (%) (hPR [4]): na (na = not active (i.e. efficacy of <20 and potency of >10,000))

Question: What does the source list for `CC(=O)[C@H]1CC[C@H]2[C@@H]3CCC4=CC(=O)CC[C@]4(C)[C@H]3CC[C@]12C` [Prog., progesterone, reference compound]?
Answer: Emax (hPR [1]): 100%; Emax (hPR [2]): 100%; Emax (hPR [3]): < 20%; Emax (hPR [4]): < 20%

Question: Which “hPR Agonist T47D cells Eff. (%)” value (hPR [1]) does the source give for `CC#C[C@]1(O)CC[C@H]2[C@@H]3CCC4=CC(=O)CCC4=C3[C@@H](c3ccc(N(C)C)cc3)C[C@@]21C` [RU486, mifepristone, reference compound] here?
Answer: na (na = not active (i.e. efficacy of <20 and potency of >10,000))

Question: And the “hPR Agonist CV-1 Cells Eff. (%)” value (hPR [2]; CV-1 cells)?
Answer: na (na = not active (i.e. efficacy of <20 and potency of >10,000))

Question: What about the “hPR Antagonist CV-1 Cells Eff. (%)” value (hPR [3]; CV-1 cells) of the same molecule?
Answer: 94%

Question: And the “hPR Antagonists T47D Cells Eff. (%)” value (hPR [4])?
Answer: 94%

Question: What does the source list for `CN(C)c1ccc([C@H]2C[C@]3(C)[C@@H](CC[C@]3(O)CCCO)[C@@H]3CCC4=CC(=O)CCC4=C32)cc1` [ZK299, reference compound]?
Answer: Emax (hPR [1]): < 20%; Emax (hPR [2]): < 20%; Emax (hPR [3]): 99%; Emax (hPR [4]): 86%
